According to patent US8633224B2, “Hemiasterlin derivatives and uses thereof in the treatment of cancer” (Eisai Co., Ltd., priority 2002, dated 2014):

What was measured:
human cancer cells = test: in vitro and in vivo screening panel (growth inhibition, MDR, cytotoxicity, mouse serum stability, mitotic block reversibility, tumor xenograft); details: properties (i)-(vii) of b364/b365
Protocol: In certain embodiments, compounds of the invention were tested for in vitro and in vivo activity. Screening methods included standard in vitro cell growth inhibition assays using a panel of human cancer cell lines, a U937 (ATCC accession number CRL 1593) mitotic block reversibility assay, mouse serum stability assay, MDR assay, and cytotoxicity assay. In certain other embodiments, compounds of the invention were evaluated in tumor xenograft in vivo growth inhibition assays.
Cultured human cancer cells (including breast, prostate, colon, lung, leukemia, lymphoma and other) were plated in 96-well plates and grown in the continuous presence of test compounds for 72 or 96 hours. The human cell lines used in this cell growth inhibition assay, include, but are not limited to, the following solid tumor cell lines and non-solid tumor cell lines: DLD-1 colon cancer cells (ATCC accession number CCL-221), DU 145 prostate cancer cells (ATCC accession number HTB-81), H460 non small cell lung cancer, HCT-15 colon cancer cells (ATCC accession number CCL-225), HEL erythroleukemia cells, HL-60 promyelocytic leukemia cells (ATCC accession number CCL-240), K562 leukemia (ATCC accession number CCL-243), LOX melanoma, MDA-MB-435 breast cancer cells, U937 lymphoma cells (ATCC accession number CRL 1593), PANC-1 pancreatic cancer (ATCC accession number CRL-1469), HCC-2998 colon cancer (NCI-Frederick Cancer DCTD Tumor/Cell Line Repository), HCT 116 colon cancer (ATCC accession number CCL-247), HT-29 colon cancer (ATCC accession number HTB-38), LoVo colon cancer (ATCC accession number CCL-229), SW-480 colon cancer (ATCC accession number CCL-228), SW-620 colon cancer (ATCC accession number CCL-227) and COLO-205 colon cancer (ATCC accession number CCL-222). For monolayer cultures, growth was assessed using modifications (Amin et al, Cancer Res., 47: 6040-6045, 1987) of a methylene blue-based microculture assay (Finlay et al, Anal. Biochem., 139: 272-277, 1984). Absorbances at 620 and 405 nm were measured on a Titertek Multiscan MCC/340 plate reader and absorbances at 405 nm were subtracted from absorbances at 620 nm. For suspension cultures, growth was assessed using a 3-(4,5-dimethylthiazol-2-yl)-2,5-diphenyl tetrazolium bromide-based assay (Mosmann et al, J. Immunol. Methods, 65: 55-63, 1983) modified as follows. After 4 days of incubation with test compounds, sterile-filtered 3-(4,5-dimethylthiazol-2-yl)-2,5-diphenyl tetrazolium bromide was added to each well (final concentration, 0.5 mg/ml), and plates were incubated at 37° C. for 4 h. Acid-isopropanol (0.1 N HCl in isopropanol, […]) was then added to each well, and the resultant formazan crystals were dis-solved by gentle mixing. Absorbances at 540 nm were measured on a Titertek Multiscan MCC/340 plate reader.
Briefly, U937 (ATCC accession number […]) were exposed to various concentration of compounds for 12 hours. The compounds were washed away and the cells were allowed to recover for an additional 10 hours. The cells were collected by centrifugation and fixed overnight in 70% ethanol. The cells were washed in PBS, incubated with RNase A and stained with propidium iodide. Single channel flow cytometry was performed on a Becton Dickinson FACScan; the collection and analysis of data were performed using Becton Dickinson CELLQuest software. Doublet events were eliminated from analyses by proper gating on FL2-W/FL2-A primary plots before histogram analysis of DNA content (measured as FL2-A).
This is a modification of the standard cell growth inhibition assays described above. Two cultured human cancer cell lines were used: human uterine sarcoma MDR negative MES-SA cells (ATCC accession number CRL-1976) and human uterine sarcoma MDR-positive MES-SA/Dx5 cells (ATCC accession number CRL-1977). Cells were plated in a 96-well microtiter plates at a density of 7500 cells/well. The cells were incubated in the presence or absence of test compounds for 96 hours.

[1] = test system: human lung carcinoma, human colon carcinoma and human melanoma; details: cited from earlier work

Compound	desired properties (growth inhibition IC50, resistance ratio, cytotoxicity in non-dividing normal cells, mouse serum stability, mitotic block reversibility, tumor regression, tumor growth inhibition) (human cancer cells)	antitumor activity against several cell lines [1]
C/C(=C\[C@H](C(C)C)N(C)C(=O)[C@@H](NC(=O)[C@H]1CCCCN1C(C)C)C(C)(C)C)C(=O)O [ER-807974]	exhibiting desired properties	
CN[C@H](C(=O)N[C@H](C(=O)N(C)[C@H](/C=C(\C)C(=O)N1CCC[C@H]1C(=O)OC)C(C)C)C(C)(C)C)C(C)(C)c1ccccc1 [ER-805736]	exhibiting desired properties	
C/C(=C\[C@H](C(C)C)N(C)C(=O)[C@@H](NC(=O)[C@H]1CCCCN1C(C)C(C)C)C(C)(C)C)C(=O)O (single isomer, unassigned) [ER-808662]	exhibiting desired properties	
CCC(C)N1CCCCC1C(=O)NC(C(=O)N(C)[C@H](/C=C(\C)C(=O)O)C(C)C)C(C)C (stereo in doubt) [ER-808824]	exhibiting desired properties	
C/C(=C\[C@H](C(C)C)N(C)C(=O)[C@@H](NC(=O)[C@@H]1CCCCN1C)C(C)(C)C)C(=O)O [ER-807102]	exhibiting desired properties	
CN[C@H](C(=O)N[C@H](C(=O)N(C)[C@H](CN(C)CC(=O)N1CCC[C@H]1C(=O)OC)C(C)C)C(C)(C)C)C(C)(C)c1ccccc1 [ER-806925]	exhibiting desired properties	
CN[C@H](C(=O)N[C@H](C(=O)N(C)[C@H](CN1CCC[C@H]1C(=O)N1CCC[C@H]1C(N)=O)C(C)C)C(C)(C)C)C(C)(C)c1ccccc1 [ER-807328]	exhibiting desired properties	
CC(C)OC(=O)[C@@H]1CCCN1C(=O)[C@@H]1CCCN1C[C@H](C(C)C)N(C)C(=O)[C@@H](NC(=O)[C@H]1CCCCN1C)C(C)(C)C [ER-807904]	exhibiting desired properties	
CCC(C)N1CCCCC1C(=O)NC(C(=O)N(C)[C@H](/C=C(\C)C(=O)O)C(C)C)C(C)(C)C (stereo in doubt) [ER-808368]	exhibiting desired properties	
CN[C@H](C(=O)N[C@H](C(=O)N(C)[C@H](/C=C(\C)C(=O)O)C(C)C)C(C)(C)C)C(C)(C)c1ccc(OCc2ccccc2)cc1 [ER-805913]	exhibiting desired properties	
CN[C@H](C(=O)N[C@H](C(=O)N(C)[C@H](/C=C(\C)C(=O)O)C(C)C)C(C)(C)C)C(C)(C)c1cn(C)c2ccccc12 [Hemiasterlin]		exhibited antitumor activity
CCC(CC)(NC)C(=O)N[C@H](C(=O)N(C)[C@H](/C=C(\C)C(=O)O)C(C)C)C(C)(C)C [ER-807850]	exhibiting desired properties	
